Series [1] has as its target Wee1-like protein kinase (Homo sapiens) (UniProt P30291). As to the kind of experiment: Selectivity interaction (LanthaScreen Eu Kinase Binding Assay) EUB0001632a WEE1. The following applies: at 10 µM.
The test system of series [2] is Tyrosine-protein kinase ABL1 (Homo sapiens), P00519 [Q252H]. The experiment in a line: (§1) Selectivity interaction (Ambit KINOMEscan and KiNATiv profiling in Jurkat cells) EUB0000090b ABL1. It counts as cell-based. The following applies: at 1 µM.
For series [3], the system named is Tyrosine-protein kinase ABL1 (Homo sapiens), P00519 [F317L]. The description is as §1. It counts as cell-based. The following applies: at 1 µM.
In series [4] the test system is Tyrosine-protein kinase ABL1 (Homo sapiens), P00519 [E255K]. Described as §1. In kind it is cell-based. The following applies: at 1 µM.
Series [5] has as its system Tyrosine-protein kinase ABL1 (Homo sapiens), P00519 [Y253F]. The series is described as §1. It counts as cell-based. The following applies: at 1 µM.
The subject of series [6] is Tyrosine-protein kinase ABL1 (Homo sapiens), P00519 [M351T]. The series is described as §1. In kind it is cell-based. The following applies: at 1 µM.
For series [7], the system named is Tyrosine-protein kinase ABL1 (Homo sapiens), P00519 [H396P]. The series is described as §1. It counts as cell-based. The following applies: at 1 µM.
For series [8], the system named is Tyrosine-protein kinase ABL1 (Homo sapiens), P00519 [F317I]. Described as §1. It counts as cell-based. The following applies: at 1 µM.
Series [9] addresses Tyrosine-protein kinase ABL1 (Homo sapiens, UniProt P00519). The series is described as §1. It counts as cell-based. The following applies: at 1 µM.
In series [10] the test system is Tyrosine-protein kinase ABL1 (Homo sapiens), P00519 [T315I]. The description is as §1. It counts as cell-based. The following applies: at 1 µM.
Series [11] can be described thus: Selectivity interaction (Ambit KINOMEscan and KiNATiv profiling in Jurkat cells) EUB0000090b CDK2H. The following applies: Selectivity number of off-targets 9; Selectivity number of targets 456; Source Knowledge https://www.nature.com/articles/nchembio.2166; at 1 µM.
For series [12], the target named is Mitogen-activated protein kinase kinase kinase 1 (Homo sapiens, UniProt Q13233). As to the kind of experiment: Selectivity interaction (KinomeScan (DiscoverX)) EUB0000607a MAP3K1. The following applies: at 10 µM.
In series [13] the target is Fibroblast growth factor receptor 3 (Homo sapiens, UniProt P22607). The following applies: at 10 µM.
A further series concerns the target Activated CDC42 kinase 1 (Homo sapiens, UniProt Q07912). The following applies: at 10 µM.
Series [14] deals with Serine/threonine-protein kinase NLK (Homo sapiens, UniProt Q9UBE8). As to the kind of experiment: Selectivity interaction (Competition-binding assay (DiscoverX)) EUB0000229b NLK.
For series [15], the target named is Homeodomain-interacting protein kinase 3 (Homo sapiens, UniProt Q9H422). The experiment in a line: Selectivity interaction (KinomeScan (DiscoverX)) EUB0001079a HIPK3. The following applies: at 1 µM.
The next series concerns the target KCNQ1 (Homo sapiens, UniProt P51787). As to the kind of experiment: Selectivity interaction (Panel of kinases, GPCRs, ion channels and transporters (enzymatic assay)) EUB0000266bCl KCNQ1.
The target of series [16] is T1, cGMP-dependent protein kinase 1 (Homo sapiens) (UniProt Q13976).
T1 sequence (whole entry): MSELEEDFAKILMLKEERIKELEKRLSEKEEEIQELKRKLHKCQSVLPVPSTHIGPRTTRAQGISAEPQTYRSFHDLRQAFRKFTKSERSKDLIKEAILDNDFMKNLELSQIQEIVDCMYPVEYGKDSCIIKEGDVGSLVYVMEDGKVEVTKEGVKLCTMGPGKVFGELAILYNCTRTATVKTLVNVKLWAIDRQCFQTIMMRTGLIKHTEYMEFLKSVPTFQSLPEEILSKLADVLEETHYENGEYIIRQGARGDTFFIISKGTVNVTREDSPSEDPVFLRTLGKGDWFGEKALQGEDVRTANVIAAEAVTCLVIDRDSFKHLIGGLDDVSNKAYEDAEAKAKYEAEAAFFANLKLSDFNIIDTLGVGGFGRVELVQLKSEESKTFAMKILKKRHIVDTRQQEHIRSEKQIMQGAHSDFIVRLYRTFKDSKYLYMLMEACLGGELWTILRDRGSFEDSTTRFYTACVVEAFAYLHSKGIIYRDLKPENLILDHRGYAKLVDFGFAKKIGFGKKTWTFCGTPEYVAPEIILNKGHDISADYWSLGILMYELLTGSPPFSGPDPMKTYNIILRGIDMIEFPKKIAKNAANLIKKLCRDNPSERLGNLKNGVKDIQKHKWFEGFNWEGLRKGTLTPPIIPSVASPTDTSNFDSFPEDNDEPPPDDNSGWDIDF
As to the kind of experiment: Selectivity interaction (KinaseProfiler screening (Millipore)) EUB0000601a PRKG1. The following applies: at 3 µM.

The target in series [17] is Dual specificity mitogen-activated protein kinase kinase 1 (Homo sapiens, UniProt Q02750). The experiment in a line: Selectivity interaction (Kinase panel (literature)) EUB0001199aCl MAP2K1. The following applies: at 1 µM.
For series [18], the target named is Ribosomal protein S6 kinase alpha-3 (Homo sapiens, UniProt P51812). As to the kind of experiment: Selectivity interaction (Millipore kinase profiler) EUB0000124b RPS6KA3. The following applies: at 10 µM.
Series [19] addresses Epidermal growth factor receptor (Homo sapiens, UniProt P00533). The experiment in a line: Selectivity interaction (Millipore kinase profiler) EUB0000124b EGFR. The following applies: at 10 µM.
Series [20] deals with SRSF protein kinase 2 (Homo sapiens) (UniProt P78362). The experiment in a line: Selectivity interaction (KinomeScan (DiscoverX)) EUB0000618a SRPK2. The following applies: at 10 µM.
The target of series [21] is T2, Cyclin-dependent kinase 11A (Homo sapiens) (UniProt Q9UQ88).
T2 sequence (whole entry): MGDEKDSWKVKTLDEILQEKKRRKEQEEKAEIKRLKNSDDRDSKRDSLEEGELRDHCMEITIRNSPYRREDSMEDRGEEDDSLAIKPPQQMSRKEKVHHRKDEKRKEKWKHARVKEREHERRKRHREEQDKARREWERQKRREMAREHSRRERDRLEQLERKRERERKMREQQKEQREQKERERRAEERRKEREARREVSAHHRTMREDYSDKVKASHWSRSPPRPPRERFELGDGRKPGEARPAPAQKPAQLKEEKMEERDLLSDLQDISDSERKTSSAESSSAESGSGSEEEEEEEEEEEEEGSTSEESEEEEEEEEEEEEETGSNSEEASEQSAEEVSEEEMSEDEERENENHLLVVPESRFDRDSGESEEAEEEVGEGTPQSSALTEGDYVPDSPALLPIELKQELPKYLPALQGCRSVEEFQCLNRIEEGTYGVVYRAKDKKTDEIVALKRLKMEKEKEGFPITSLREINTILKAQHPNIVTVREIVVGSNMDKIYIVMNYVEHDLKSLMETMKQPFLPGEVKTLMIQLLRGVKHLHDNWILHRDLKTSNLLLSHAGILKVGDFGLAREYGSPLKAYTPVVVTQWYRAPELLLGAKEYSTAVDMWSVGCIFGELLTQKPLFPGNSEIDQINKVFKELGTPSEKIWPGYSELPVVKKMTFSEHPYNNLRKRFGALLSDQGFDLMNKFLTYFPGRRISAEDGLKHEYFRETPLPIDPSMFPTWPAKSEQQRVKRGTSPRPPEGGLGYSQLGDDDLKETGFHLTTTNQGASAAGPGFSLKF
As to the kind of experiment: Selectivity interaction (KinomeScan (DiscoverX)) EUB0000595a CDK11A. The following applies: at 10 µM.

A short description of series [22]: Selectivity interaction (KinomeScan (DiscoverX)) EUB0000595a CDPK1. The following applies: at 10 µM.

Data on 12 compounds can be found in ChEMBL document CHEMBL5465560, “Selectivity Literature for EUbOPEN Chemogenomic Library” (2024).

Molecules are shown by their SMILES.

Serine/threonine-protein kinase NLK, sequence (Q9UBE8 whole entry): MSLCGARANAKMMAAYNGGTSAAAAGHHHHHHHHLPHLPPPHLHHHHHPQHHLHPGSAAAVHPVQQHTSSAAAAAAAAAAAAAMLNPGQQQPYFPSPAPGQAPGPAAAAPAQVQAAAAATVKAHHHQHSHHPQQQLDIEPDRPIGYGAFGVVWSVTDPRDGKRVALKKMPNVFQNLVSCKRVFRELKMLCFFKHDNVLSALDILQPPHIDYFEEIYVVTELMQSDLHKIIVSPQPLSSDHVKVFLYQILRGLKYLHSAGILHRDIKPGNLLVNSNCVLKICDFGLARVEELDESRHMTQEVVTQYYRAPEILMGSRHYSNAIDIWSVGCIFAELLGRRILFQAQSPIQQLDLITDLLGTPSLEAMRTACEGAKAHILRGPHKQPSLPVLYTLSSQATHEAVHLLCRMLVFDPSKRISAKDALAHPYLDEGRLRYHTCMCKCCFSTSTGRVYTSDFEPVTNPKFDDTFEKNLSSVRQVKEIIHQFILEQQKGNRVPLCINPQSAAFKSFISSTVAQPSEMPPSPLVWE
Ribosomal protein S6 kinase alpha-3, sequence (P51812 whole entry): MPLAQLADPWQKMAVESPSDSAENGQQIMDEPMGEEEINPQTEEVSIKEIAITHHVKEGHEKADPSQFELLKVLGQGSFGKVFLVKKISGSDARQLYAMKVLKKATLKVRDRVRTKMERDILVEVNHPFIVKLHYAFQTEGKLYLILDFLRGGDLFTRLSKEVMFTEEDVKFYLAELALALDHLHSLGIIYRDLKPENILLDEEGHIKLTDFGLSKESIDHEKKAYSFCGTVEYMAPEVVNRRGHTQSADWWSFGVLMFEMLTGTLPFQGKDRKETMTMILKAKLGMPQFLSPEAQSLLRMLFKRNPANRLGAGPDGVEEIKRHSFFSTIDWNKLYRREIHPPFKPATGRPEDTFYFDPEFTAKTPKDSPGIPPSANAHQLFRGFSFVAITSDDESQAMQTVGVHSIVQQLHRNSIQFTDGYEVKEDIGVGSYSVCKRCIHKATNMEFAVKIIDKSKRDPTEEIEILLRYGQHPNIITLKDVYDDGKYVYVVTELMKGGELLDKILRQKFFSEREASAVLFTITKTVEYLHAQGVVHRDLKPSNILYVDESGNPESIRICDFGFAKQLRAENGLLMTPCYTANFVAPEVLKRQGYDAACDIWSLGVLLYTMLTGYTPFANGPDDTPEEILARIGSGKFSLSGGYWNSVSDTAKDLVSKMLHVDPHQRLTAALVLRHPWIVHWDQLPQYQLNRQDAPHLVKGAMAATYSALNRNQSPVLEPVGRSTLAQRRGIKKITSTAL
Fibroblast growth factor receptor 3, sequence (P22607 23-806 limits assumed): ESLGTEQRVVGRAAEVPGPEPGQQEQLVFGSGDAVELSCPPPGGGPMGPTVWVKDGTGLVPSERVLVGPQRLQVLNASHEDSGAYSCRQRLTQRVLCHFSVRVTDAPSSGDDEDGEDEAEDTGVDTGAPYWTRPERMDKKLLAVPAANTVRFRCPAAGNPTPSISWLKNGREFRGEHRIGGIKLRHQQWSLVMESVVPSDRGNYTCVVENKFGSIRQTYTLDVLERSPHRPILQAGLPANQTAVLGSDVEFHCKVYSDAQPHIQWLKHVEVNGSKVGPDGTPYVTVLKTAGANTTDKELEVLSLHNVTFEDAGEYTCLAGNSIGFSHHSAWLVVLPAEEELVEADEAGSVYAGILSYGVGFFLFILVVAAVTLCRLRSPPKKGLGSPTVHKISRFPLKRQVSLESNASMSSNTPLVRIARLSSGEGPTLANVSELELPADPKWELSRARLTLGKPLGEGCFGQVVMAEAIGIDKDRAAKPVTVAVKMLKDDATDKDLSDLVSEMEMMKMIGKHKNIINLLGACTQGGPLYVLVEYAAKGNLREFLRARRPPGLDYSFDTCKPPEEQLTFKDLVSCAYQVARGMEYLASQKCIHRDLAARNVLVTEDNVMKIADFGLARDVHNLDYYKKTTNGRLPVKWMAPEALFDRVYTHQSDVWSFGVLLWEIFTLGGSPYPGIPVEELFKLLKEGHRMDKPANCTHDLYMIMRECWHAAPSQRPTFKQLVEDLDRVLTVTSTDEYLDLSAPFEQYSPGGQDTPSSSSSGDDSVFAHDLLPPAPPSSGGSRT
Wee1-like protein kinase (Homo sapiens), sequence (P30291 whole entry, looked up): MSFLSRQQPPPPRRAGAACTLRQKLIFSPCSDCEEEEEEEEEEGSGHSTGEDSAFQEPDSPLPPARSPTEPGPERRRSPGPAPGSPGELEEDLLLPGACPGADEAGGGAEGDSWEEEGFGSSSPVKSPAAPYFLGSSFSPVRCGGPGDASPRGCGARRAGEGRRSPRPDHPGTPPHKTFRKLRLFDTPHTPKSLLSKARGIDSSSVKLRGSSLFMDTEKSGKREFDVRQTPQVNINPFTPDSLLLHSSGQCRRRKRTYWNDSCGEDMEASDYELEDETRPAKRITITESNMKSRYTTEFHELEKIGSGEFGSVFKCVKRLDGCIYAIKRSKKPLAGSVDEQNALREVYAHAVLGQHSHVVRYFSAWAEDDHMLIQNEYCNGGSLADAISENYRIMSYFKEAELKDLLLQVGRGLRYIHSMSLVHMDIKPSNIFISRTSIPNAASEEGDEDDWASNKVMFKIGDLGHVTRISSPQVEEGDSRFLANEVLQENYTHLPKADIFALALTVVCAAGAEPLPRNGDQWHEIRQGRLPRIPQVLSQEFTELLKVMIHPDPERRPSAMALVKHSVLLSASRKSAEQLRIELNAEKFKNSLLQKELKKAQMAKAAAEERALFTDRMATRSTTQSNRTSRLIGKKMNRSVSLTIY
Mitogen-activated protein kinase kinase kinase 1, sequence (Q13233 whole entry): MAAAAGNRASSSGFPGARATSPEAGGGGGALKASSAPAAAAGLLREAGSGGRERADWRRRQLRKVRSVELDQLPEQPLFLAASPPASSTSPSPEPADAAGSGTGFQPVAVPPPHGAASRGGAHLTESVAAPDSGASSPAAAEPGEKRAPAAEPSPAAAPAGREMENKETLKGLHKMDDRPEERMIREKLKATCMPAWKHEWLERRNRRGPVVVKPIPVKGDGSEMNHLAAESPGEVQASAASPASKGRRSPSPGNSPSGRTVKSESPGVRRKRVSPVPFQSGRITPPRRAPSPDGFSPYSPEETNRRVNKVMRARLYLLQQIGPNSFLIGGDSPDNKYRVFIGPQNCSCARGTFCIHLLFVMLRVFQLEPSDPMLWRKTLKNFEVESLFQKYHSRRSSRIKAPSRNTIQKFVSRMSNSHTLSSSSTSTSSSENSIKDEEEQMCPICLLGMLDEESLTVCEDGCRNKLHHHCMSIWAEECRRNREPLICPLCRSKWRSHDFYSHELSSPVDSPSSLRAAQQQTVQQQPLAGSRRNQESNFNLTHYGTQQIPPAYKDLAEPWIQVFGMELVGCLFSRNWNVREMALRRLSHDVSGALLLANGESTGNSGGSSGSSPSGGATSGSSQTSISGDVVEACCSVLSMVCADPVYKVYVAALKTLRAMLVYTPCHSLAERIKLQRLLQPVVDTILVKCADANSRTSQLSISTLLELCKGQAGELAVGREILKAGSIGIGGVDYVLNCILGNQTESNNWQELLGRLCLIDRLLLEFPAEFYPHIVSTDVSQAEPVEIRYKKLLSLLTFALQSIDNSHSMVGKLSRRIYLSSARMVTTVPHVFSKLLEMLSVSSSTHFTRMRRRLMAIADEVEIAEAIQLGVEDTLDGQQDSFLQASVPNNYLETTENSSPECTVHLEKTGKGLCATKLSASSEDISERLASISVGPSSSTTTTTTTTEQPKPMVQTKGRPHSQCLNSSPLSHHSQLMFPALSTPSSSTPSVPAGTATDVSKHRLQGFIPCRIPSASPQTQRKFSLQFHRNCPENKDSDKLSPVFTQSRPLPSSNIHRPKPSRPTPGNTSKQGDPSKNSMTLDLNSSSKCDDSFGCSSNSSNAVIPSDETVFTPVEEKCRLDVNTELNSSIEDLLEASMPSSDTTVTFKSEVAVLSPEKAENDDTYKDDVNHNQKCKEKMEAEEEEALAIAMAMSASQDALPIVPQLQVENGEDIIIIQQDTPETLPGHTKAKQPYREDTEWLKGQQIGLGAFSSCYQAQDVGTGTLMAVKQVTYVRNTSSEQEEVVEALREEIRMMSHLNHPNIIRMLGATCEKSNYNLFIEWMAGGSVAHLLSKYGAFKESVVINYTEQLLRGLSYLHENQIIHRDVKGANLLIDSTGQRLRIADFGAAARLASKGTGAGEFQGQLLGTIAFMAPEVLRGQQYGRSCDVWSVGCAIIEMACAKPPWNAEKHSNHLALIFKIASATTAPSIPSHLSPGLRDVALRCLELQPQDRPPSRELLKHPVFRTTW
KCNQ1, sequence (P51787 whole entry): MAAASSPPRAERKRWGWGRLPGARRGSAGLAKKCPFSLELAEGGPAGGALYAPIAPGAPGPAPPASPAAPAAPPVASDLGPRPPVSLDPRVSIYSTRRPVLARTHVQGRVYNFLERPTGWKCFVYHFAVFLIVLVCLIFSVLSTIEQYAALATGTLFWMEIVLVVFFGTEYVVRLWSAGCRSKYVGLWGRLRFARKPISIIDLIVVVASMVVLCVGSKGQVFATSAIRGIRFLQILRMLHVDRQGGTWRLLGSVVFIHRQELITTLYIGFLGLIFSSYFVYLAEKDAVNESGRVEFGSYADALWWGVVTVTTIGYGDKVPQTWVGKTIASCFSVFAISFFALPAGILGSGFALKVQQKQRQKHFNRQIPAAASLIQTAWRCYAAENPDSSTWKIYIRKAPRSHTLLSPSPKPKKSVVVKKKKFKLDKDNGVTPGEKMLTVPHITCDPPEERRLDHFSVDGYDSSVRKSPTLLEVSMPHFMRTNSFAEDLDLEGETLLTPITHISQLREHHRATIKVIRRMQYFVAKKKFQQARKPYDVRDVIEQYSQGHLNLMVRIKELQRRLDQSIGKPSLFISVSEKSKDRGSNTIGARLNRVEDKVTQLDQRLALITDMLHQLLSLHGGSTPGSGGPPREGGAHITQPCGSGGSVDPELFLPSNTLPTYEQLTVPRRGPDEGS

As for `Cn1cc(-n2cnc3c(NCc4nc5cc(Cl)c(Cl)cc5[nH]4)nc(N4CCOCC4)nc32)cn1`, in series [1], the % of inhibition is -20.9%.

Take `CN(C)C/C=C/C(=O)Nc1ccc(C(=O)N2CCCC(Nc3ncc(Cl)c(-c4c[nH]c5ccccc45)n3)C2)cc1` (centres undefined): the % of control in [2] was 58%; in series [3] it was 91%; in series [4], 45%; in series [5], 92%; in series [6], 88%; in series [7], 95%. For the same compound, the % of control turned out to be 100% in [8], 94% in series [9], 99% in [10] and 100% in [11].

The compound `CNC(=O)Nc1ccc(-c2nc(N3CC4CCC(C3)O4)c3cnn(C4CCC5(CC4)OCCO5)c3n2)cc1` showed a % of control in [12] of 58%.

Consider `Cc1cc([C@@H](C)Nc2ccccc2C(=O)O)c2nc(N3CCOCC3)cc(=O)n2c1` [AZD-6482], for which the results for the % of control (in series [13]; at Activated CDC42 kinase 1) were 83% and 100%, respectively.

As usually defined, the Kd is a measure of binding affinity in units of concentration. Low values mean higher affinity, high ones lower affinity. In turn, `COc1cc(N(C)c2ccnc3ccc(C(F)(F)F)cc23)cc(OC)c1OC` displayed a Kd in [14] of 6.5 µM.

On to `Nc1cnc(N2CCc3cc(S(=O)(=O)Nc4c(F)cc(Cl)cc4F)cc(N4CCCC4=O)c32)nc1` [TP-020n], for which the % of control in [15] was 100%.

On to `CCn1c(-c2nc3cc(C(=O)N4CCCC(N)C4)ccc3n2C)cc2ccccc21` (centres undefined), for which the XC50 on KCNQ1 is more than 25.1 µM.

Take `CCc1cc(Nc2nccc(-c3c(-c4ccc(OC)c(C(=O)Nc5c(F)cccc5F)c4)nc4ccccn34)n2)c(OC)cc1N1CCC(N2CCN(S(C)(=O)=O)CC2)CC1`: in series [16], the % of inhibition was determined as 41%.

In the case of `CN1Cc2nccc(-c3cn(C)nc3-c3ccc(F)cc3)c2C1=O`, the % of inhibition in [17] was -4%.

As to `CC(=O)Nc1cccc(-n2c(=O)n(C3CC3)c(=O)c3c(Nc4ccc(I)cc4F)n(C)c(=O)c(C)c32)c1`, the results for the % of control in [18] and in series [19] were 94% and 104%, respectively.

For the compound `O[C@H]1CC[C@H](Nc2ncc3nc(Nc4c(F)cc(F)cc4F)n([C@H]4CCOC4)c3n2)CC1`, the % of control in series [20] is 100%.

`COCC(=O)NC/C=C/c1ccc2ncnc(Nc3ccc(Oc4ccc(C)nc4)c(C)c3)c2c1` [CP-724714]: the results for the % of control in series [21] and in series [22] were 0.5% and 25%, respectively.
